Reference: patent US11944607B2, “Treatment of progressive neurodegenerative disease with ibudilast” (MediciNova, Inc., priority 2007, dated 2024)
Values joined by “and” are separate entries in the source; they are usually repeats but may differ in a detail not shown here. Equal values may be shown once.

Assays:
[1] = tested on: patients with multiple sclerosis; assay: Phase II placebo-controlled, randomized, double-blind study: relapse and disability (EDSS) outcomes; format: in vivo, human
Method: (§1) A Phase II placebo-controlled, randomized, double-blind study was conducted using ibudilast in patients with multiple sclerosis. During year 1, patients were treated with 0 mg tid (placebo), 10 mg tid or 20 mg tid of ibudilast; during year 2, patients on placebo were randomized to receive either 10 mg tid or 20 mg tid of ibudilast (patients on 10 mg tid or 20 mg tid during the first year of the study continued on that dose during the second year). A baseline MRI scan was taken two weeks prior to treatment. Brain volume changes were assessed on an annual basis with subsequent MRI scans. MRI scans were performed every two months of the 2-year period to assess changes in T1 and T2 lesions.

[2] = tested on: patients with multiple sclerosis; assay: Phase II clinical trial: brain volume loss by cranial MRI; format: in vivo, human
Method: as §1

[3] = tested on: patients with multiple sclerosis; assay: Phase II clinical trial: double-blind MRI analysis of new lesion evolution to persistent black holes; format: in vivo, human; conditions: for Mean Proportion of Lesions Evolving to PBH / Median Proportion of Lesions Evolving to PBH: new lesions at month 2, PBH at month 10
Text: The study is the result of randomized, double-blind, placebo-controlled analysis of year 1 MRI data with MN-166 administration. MRIs were collected bimonthly during the one year treatment period and were re-evaluated in a double-blind manner for this new analysis. Predefined endpoints for this evaluation were the rate of evolution of new lesions to persistent black holes and remyelinated lesions. The predefined statistical endpoints were at the rate of evolution of new lesions (NL) to persistent black holes (PBH) and remyelinated lesions (RL). New T1 gadolinium-enhancing or new T2 lesions were defined as NL in the first on-study Mill at month 2. […] Hypointense lesions at month 2 or 4 that were isointense at month 10 were RL. Relative Risk (RR) of NL evolution to PBH and RL per patient was analyzed using a general linear model with the error term from the Poisson distribution.

[4] = tested on: rat animal model for Alzheimer's disease; assay: Rat animal model for Alzheimer's disease; format: in vivo; conditions: present-tense example without data
[5] = tested on: animal model for progressive multiple sclerosis; assay: Animal model for progressive multiple sclerosis; format: in vivo; conditions: progressive MS model; present-tense example without data
[6] = tested on: animal model for Parkinson's disease; assay: Animal model for Parkinson's disease; format: in vivo; conditions: present-tense example without data
activated microglia = conditions: dose-dependent; cited from earlier work
[7] = administered systemically; cited from earlier work
[8] = 30 mg (N = 94), 2 Years, p = 0.0832 vs Placebo to Active
[9] = 60 mg (N = 98), 2 Years, p = 0.0516 vs Placebo to Active
[10] = 2 Year Active (pooling of 30 mg and 60 mg dose groups), 2 Years, p = 0.0264 vs Placebo to Active
[11] = Placebo to Active (to 30 mg/d), 2 Years (12 months placebo, 12 months drug)
[12] = Placebo to Active (to 60 mg/d), 2 Years (12 months placebo, 12 months drug)
[13] = Placebo to Active pooled (N = 100), 2 Years

CC(C)C(=O)c1c(C(C)C)nn2ccccc12 [ibudilast, 3-isobutyryl-2-isopropylpyrazolo[1,5-a]pyridine]
Disability Progression, number of patients ([1]; 30 mg (N = 94), 1 Year): 5
Disability Progression, percent of patients ([1]; 30 mg (N = 94), 1 Year): 5.3%
Disability Progression, number of patients [1, 8]: 10
Disability Progression, percent of patients [1, 8]: (10.6%)
Disability Progression, number of patients ([1]; 60 mg (N = 98), 1 Year): 4
Disability Progression, percent of patients ([1]; 60 mg (N = 98), 1 Year): 4.1%
Disability Progression, number of patients [1, 9]: 10
Disability Progression, percent of patients [1, 9]: 10.2%
Disability progression (worsened ≥1.0 on EDSS for 4 mo) (ITT) ([1]; 60 mg/day, year 1 (Table 1), p=0.334 vs pbo): pbo - 8%, 60 mg - 4%
Annualized relapse rate ([1]; 60 mg/day, year 1, ITT, p=0.1106 vs pbo): pbo - 0.9, 60 mg - 0.7 (ITT)
IDSS (AUC of change from baseline EDSS) ([1]; 60 mg/day, year 1, ITT, p=0.1761 vs pbo): pbo: −0.05, 60 mg: −0.16 (ITT)
IDSS (AUC of change from baseline EDSS) ([1]; 60 mg/day, year 1, completers, p=0.0365 vs pbo): pbo: −0.05, 60 mg: −0.24 (completers)
Annualized relapse rate ([1]; 60 mg/day, year 1, completers, p=0.0752 vs pbo): pbo - 0.8, 60 mg - 0.6 (completers)
Time to first relapse (ITT), median ([1]; 60 mg/day, year 1, p=0.0438 vs pbo (pbo 244 days)): Median for 60 mg >1 year
EDSS (% worsened) (ITT) ([1]; 60 mg/day, year 1, p=0.1771 vs pbo): pbo - 30%, 60 mg - 21.4%
% of subjects exacerbation-free for 1 year (ITT) ([1]; 60 mg/day, p=0.033 vs pbo): pbo - 41%, 60 mg - 56.1%
Disability Progression, number of patients [1, 10]: 20/194
Disability Progression, percent of patients [1, 10]: 10.4%
Likelihood of disability progression (≥1.0 point increase in EDSS for 4 consecutive months) ([1]; 24 months of drug vs 12 months of drug, p=0.026): less likely
Disability Progression, number of patients [1, 11]: 8/51
Disability Progression, percent of patients [1, 11]: (15.7%)
Disability Progression, number of patients [1, 12]: 13/49
Disability Progression, percent of patients [1, 12]: (26.5%)
Disability Progression, number of patients [1, 13]: 21/100
Disability Progression, percent of patients [1, 13]: 21%
Decrease in the rate of sustained disability progression ([1]; extended (at least about two years) administration, compared with patients treated for less than two years): about 50%
Prolongation of time to relapse, average ([1]; extended (at least about two years) administration, compared with untreated patients): about 130 days
Average loss of brain volume ([2]; 60 mg a day, 1-year treatment period, placebo 1.2%, p 0.0352): 0.79%
Brain volume loss compared to the other treatment groups (cranial MRI) ([2]; 60 mg per day for 24 months, p=0.030): significantly less
Brain volume loss compared to placebo (cranial MRI) ([2]; 60 mg per day, after 12 months, p=0.04): significant reduction
Brain volume loss ([2]; extended (at least about two years) administration): reduction
# Patients w. New Lesions at Month 2 ([3]; 30 mg/day (n=94)): 64
Mean Proportion of Lesions Evolving to PBH ([3]; 30 mg/day): 0.20
Median Proportion of Lesions Evolving to PBH ([3]; 30 mg/day): 0.08
Relative Risk (for Evolution to PBH) vs. placebo ([3]; 30 mg/day, p=0.074, listed as MN-166): 0.735 and 0.74
# Patients w. New Lesions at Month 2 ([3]; 60 mg/day (n=98)): 56
Mean Proportion of Lesions Evolving to PBH ([3]; 60 mg/day): 0.16
Median Proportion of Lesions Evolving to PBH ([3]; 60 mg/day): 0.04
Relative Risk (for Evolution to PBH) vs. placebo ([3]; 60 mg/day, p=0.011): 0.63
Formation of black holes on MRI ([3]; first year of treatment, MS patients): decreased
Conversion of acute lesions to persistent black holes ([3]; overall benefit statement for extended administration): reduction
Cognitive function [4]: improvement
Functional outcomes [5]: improvement
Locomotion [6]: improvement
Production of IL-10, NGF, GDNF and NT-4 (activated microglia): enhance
Production of nitric oxide (NO), reactive oxygen species, IL-1beta, IL-6 and TNF (activated microglia): suppress
Blood-brain barrier crossing [7]: crosses the blood-brain barrier
